Data: article PMC4786259 (PLoS ONE, 2016)
Like-named read-outs stand apart in the source and are kept apart here.

Key:
[1] = target: D5 (Homo sapiens, UniProt P21918); experiment: PDSP radioligand competition binding; conditions: radioligand [^3H]SCH23390
[2] = target: T1, 5-HT7 (Homo sapiens, UniProt P34969); experiment: PDSP radioligand competition binding; conditions: radioligand [^3H]LSD; read-out: In Vitro Affinity
T1 construct: expressed in transfected cells

[3] = target: T2, 5-HT2A (Homo sapiens, UniProt P28223); experiment: PDSP radioligand competition binding; conditions: radioligand [^3H]Ketanserin; read-out: In Vitro Affinity
T2 construct: expressed in transfected cells
T2 sequence (P28223 whole entry, looked up): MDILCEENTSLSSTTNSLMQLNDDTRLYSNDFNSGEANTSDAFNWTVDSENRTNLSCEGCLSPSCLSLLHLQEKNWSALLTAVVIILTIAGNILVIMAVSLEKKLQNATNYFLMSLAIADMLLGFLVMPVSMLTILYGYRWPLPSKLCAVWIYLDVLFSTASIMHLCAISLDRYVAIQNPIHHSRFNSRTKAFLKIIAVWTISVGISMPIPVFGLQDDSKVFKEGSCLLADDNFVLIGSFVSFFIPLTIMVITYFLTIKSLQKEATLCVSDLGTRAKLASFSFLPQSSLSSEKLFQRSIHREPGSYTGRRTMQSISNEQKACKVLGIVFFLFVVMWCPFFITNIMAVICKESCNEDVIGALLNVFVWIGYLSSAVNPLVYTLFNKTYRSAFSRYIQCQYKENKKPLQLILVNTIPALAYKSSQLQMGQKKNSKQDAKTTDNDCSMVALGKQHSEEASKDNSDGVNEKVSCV

[4] = target: β3-AR (Homo sapiens, UniProt P13945); experiment: PDSP radioligand competition binding; conditions: radioligand [^3H]CGP12177; read-out: In vitro Affinity
Chain of β3-AR (P13945 whole entry): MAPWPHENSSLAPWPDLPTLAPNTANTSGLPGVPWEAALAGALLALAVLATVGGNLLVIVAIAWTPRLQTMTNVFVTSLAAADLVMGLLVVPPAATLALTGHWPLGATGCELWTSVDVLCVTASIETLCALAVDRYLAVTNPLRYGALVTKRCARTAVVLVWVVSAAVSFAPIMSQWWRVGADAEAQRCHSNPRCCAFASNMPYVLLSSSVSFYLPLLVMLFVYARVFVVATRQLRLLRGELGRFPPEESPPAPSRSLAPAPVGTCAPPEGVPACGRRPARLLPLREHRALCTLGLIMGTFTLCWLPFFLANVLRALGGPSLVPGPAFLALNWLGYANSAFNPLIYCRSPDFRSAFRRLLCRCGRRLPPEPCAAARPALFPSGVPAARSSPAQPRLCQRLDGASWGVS

[5] = target: DOR (Homo sapiens, UniProt P41143); experiment: PDSP radioligand competition binding; conditions: radioligand [^3H]DADLE; read-out: In vitro Affinity
Chain of DOR (P41143 whole entry): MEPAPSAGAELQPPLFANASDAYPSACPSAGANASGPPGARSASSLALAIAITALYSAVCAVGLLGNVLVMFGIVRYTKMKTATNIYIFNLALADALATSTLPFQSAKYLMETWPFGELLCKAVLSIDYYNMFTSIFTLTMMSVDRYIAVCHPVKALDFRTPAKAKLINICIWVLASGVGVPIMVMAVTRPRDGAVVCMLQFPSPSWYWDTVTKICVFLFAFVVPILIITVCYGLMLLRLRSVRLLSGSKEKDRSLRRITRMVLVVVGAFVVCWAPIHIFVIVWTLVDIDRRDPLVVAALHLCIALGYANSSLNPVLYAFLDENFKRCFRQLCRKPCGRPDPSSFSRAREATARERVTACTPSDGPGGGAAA

[6] = target: MOR (Homo sapiens, UniProt P35372); experiment: PDSP radioligand competition binding; conditions: radioligand [^3H]DAMGO; read-out: In vitro Affinity
Chain of MOR (P35372 whole entry): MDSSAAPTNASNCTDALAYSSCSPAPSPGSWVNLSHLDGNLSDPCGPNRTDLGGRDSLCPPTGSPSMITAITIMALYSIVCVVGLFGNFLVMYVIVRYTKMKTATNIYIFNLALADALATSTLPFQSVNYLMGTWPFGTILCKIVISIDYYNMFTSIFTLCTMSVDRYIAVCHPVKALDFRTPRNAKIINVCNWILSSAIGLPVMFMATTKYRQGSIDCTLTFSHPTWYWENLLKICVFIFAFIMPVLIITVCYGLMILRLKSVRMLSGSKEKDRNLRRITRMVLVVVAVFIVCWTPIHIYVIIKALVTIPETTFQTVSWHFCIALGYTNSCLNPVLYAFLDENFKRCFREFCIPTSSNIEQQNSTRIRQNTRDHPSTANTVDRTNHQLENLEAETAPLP

[7] = target: 5-HT5A (Homo sapiens, UniProt P47898); experiment: PDSP radioligand competition binding; conditions: radioligand [^3H]LSD; read-out: In vitro Affinity
Chain of 5-HT5A (P47898 whole entry, species assumed): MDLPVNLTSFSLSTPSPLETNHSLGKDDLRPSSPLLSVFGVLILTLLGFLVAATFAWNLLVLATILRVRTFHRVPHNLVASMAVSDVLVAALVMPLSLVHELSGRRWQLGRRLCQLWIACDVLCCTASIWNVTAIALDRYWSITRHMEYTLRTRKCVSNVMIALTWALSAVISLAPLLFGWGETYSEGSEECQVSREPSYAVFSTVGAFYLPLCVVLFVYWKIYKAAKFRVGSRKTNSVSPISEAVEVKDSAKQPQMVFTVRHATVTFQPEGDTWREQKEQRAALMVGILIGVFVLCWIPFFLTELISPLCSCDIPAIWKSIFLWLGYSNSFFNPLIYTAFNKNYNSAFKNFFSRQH

[8] = target: T3, 5-HT1A (Homo sapiens, UniProt P08908); experiment: PDSP receptor functional assay; type: cell-based
T3 construct: expressed in transfected cells
T3 sequence (P08908 1-422): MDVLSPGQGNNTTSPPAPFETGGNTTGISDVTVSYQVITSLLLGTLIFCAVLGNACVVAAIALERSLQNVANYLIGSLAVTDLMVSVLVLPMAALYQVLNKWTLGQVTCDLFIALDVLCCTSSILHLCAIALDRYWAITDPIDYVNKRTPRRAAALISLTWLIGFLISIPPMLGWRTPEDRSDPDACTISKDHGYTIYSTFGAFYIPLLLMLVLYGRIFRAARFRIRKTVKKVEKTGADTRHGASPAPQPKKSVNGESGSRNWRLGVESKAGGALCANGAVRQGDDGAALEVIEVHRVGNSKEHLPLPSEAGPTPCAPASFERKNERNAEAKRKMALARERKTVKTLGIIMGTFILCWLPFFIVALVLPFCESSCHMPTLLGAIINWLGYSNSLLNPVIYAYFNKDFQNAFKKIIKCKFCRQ

[9] = target: T4, 5-HT2B (Homo sapiens, UniProt P41595); experiment: PDSP receptor functional assay; type: cell-based
T4 construct: expressed in transfected cells
T4 sequence (P41595 whole entry, species assumed): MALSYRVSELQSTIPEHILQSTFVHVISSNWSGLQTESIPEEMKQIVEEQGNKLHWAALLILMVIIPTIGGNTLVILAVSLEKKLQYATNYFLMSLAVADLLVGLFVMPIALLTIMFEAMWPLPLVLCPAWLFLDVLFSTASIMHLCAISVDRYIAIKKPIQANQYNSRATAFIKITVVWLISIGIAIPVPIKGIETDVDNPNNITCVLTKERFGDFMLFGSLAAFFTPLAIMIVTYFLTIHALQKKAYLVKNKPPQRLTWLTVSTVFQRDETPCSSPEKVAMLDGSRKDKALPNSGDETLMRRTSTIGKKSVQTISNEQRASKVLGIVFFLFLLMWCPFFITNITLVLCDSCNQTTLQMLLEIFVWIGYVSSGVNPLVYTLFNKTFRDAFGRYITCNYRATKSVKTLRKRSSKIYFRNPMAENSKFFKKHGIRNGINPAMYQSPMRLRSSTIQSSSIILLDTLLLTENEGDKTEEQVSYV

[10] = target: T5, 5-HT2C (Homo sapiens, UniProt P28335); experiment: PDSP receptor functional assay; type: cell-based
T5 construct: expressed in transfected cells
T5 sequence (P28335 33-458): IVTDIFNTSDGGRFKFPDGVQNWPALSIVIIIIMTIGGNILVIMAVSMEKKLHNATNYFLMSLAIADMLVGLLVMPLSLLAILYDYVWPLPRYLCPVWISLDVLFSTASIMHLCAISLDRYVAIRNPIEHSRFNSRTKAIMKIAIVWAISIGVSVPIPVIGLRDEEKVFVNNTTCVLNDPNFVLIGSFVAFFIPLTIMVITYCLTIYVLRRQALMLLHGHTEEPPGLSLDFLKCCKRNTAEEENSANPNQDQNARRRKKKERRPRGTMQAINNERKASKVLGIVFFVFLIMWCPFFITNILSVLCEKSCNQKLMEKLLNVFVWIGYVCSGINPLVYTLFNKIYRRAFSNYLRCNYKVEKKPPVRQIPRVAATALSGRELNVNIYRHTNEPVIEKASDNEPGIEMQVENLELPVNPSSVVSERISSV

[11] = target: T6, 5-HT6 (Homo sapiens, UniProt P50406); experiment: PDSP receptor functional assay; type: cell-based
T6 construct: expressed in transfected cells
T6 sequence (P50406 whole entry, species assumed): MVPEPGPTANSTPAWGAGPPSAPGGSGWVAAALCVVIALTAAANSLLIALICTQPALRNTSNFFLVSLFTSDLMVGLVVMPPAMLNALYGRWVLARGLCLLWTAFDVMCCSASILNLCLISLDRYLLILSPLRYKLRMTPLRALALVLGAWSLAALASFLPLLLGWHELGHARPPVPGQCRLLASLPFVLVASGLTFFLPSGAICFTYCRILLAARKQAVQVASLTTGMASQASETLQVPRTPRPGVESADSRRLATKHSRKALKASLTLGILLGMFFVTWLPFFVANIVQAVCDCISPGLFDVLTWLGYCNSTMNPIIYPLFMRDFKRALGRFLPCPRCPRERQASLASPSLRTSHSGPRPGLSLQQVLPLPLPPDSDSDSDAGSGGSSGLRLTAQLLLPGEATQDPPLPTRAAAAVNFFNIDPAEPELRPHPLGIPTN

[12] = target: T7, D4 (Homo sapiens, UniProt P21917); experiment: PDSP receptor functional assay; type: cell-based
T7 construct: expressed in transfected cells
T7 sequence (P21917 1-419): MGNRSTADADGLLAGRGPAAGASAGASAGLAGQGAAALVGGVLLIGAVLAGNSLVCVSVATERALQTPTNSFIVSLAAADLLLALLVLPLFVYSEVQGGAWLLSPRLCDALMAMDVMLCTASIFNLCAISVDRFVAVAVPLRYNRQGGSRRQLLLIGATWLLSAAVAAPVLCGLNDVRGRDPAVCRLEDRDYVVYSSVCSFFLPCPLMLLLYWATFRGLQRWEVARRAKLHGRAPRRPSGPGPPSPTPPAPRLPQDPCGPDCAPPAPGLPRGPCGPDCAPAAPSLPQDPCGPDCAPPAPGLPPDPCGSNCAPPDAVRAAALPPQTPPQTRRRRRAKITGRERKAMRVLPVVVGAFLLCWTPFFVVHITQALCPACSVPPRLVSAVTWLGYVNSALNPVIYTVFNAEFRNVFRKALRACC

[13] = Dynamic light scattering to test for colloidal aggregation; type: physicochemical
Description: Measurements were made at room temperature using a DynaPro MS/X (Wyatt Technology) with a 55 mW laser at 826.6 nm. The laser power was 100%, and the detector angle was 90° with samples run in duplicate.

[14] = test system: male C57BL/6J mice; experiment: AMPH-induced hyperlocomotor activity (open field); type: in vivo; conditions: 3 mg/kg pre-treatment, 3 mg/kg AMPH; between 35–50 min, vs amphetamine alone
Description: Locomotor activity was assessed in AccuScan activity monitors (41X41X30 cm; AccuScan Instruments, Columbus, OH) with photocells spaced at 1.52 cm as described. In these monitors, the photocells create a grid of light beams, and breaks in the light beams (caused by the mouse) are recorded. The Accuscan software then calculates the total distance travelled (amongst other measurements) by analyzing the sequential order of beam breaks in the grid. Horizontal activity was measured as the total distance traveled in centimeters and was recorded in 5-minute bins. PCP-induced hyperlocomotor activity: mice (n = 16) previously acclimated to activity chambers were placed into the chambers for 15 minutes. […] Subsequently, mice were injected with 6.0 mg/kg PCP (i.p.) and returned to the chamber for 90 minutes. Induction of AMPH-induced hyperlocomotor activity followed an identical protocol except locomotor activity was recorded for a total of 75 minutes and 3 mg/kg AMPH was used (i.p.).

[15] = test system: hDAT and hVMAT2; experiment: Whole cell 3H-dopamine uptake in HEK-DAT/VMAT2 cells; conditions: nuciferine pre-treatment
Description: Cell culture: HEK293 cells (ATCC) lines stably expressing hDAT or hDAT and hVMAT2 constructs were cultured at 37°C and 5% CO2 in DMEM with 10% FBS.
Whole cell ^3H-dopamine (DA) uptake: Cells were plated into 48-well plates one day before uptake was performed. […] After incubation, 25 μl uptake buffer containing ^3H-DA and DA was added for a final concentration of 20 nM ^3H-DA and 1 μM DA. Cells were incubated at 37°C for 20 minutes or for the time indicated. Nonspecific uptake was determined in the presence of 10 μM nomifensine. Uptake was terminated by aspirating uptake buffer and washing each well twice with 0.5 ml ice-cold uptake buffer. Cells were lysed in 0.1 N NaOH and transferred to vials containing 3 ml scintillation cocktail. Radioactivity was quantitated using a Beckman LS6500 counter. Data were analyzed in Graph Pad Prism 5.0.

[16] = target: AmpC β-lactamase (Escherichia coli, UniProt P00811); experiment: AmpC β-lactamase assay counterscreen for colloidal aggregation; conditions: <= 10 μM; data not shown
Chain of AmpC β-lactamase (P00811 20-377): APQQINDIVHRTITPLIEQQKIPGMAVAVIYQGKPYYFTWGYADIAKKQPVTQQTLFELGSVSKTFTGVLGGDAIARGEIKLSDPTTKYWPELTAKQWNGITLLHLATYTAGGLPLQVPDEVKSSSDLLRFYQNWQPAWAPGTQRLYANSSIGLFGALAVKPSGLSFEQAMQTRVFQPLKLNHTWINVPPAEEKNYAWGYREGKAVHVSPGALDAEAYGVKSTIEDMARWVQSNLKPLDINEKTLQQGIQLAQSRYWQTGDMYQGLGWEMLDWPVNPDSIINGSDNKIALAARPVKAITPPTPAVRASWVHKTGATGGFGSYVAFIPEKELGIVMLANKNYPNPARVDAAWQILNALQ

Chain of D5 (P21918 whole entry, looked up): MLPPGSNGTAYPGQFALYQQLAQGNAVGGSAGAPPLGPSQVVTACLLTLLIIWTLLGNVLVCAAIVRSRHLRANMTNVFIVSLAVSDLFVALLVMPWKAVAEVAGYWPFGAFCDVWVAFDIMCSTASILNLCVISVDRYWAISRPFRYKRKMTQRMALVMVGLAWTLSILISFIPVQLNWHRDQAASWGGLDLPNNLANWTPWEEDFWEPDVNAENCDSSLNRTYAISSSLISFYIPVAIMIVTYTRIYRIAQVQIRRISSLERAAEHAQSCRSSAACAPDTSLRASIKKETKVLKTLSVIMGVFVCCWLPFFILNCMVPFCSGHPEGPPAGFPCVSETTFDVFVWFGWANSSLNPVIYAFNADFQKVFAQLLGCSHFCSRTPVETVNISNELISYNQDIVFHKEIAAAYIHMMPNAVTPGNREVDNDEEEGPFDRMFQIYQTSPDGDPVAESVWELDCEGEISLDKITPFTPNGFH
T1 sequence (P34969 whole entry, species assumed): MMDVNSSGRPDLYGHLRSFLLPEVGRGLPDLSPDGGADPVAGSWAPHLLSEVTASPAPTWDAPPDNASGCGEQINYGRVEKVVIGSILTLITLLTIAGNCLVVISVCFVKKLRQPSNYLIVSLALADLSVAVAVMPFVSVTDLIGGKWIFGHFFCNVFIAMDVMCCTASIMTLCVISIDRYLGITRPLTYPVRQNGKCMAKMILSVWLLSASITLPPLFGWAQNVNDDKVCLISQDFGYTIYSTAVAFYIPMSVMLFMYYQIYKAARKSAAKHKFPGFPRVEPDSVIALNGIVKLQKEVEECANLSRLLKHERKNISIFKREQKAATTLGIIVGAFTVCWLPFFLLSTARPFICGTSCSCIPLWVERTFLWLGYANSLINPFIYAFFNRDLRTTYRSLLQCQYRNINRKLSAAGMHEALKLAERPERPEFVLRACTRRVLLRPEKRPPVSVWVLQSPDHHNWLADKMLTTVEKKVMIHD

## COc1cc2c3c(c1OC)-c1ccccc1C[C@H]3N(C)CC2 [nuciferine]
[1]
  In Vitro Affinity: (neg) [^3H]SCH23390
[2]
  Ki: 0.0498 µM
[3]
  Ki: 0.312 µM
[4]
  Ki: 1.1 µM
[5]
  Ki: 10 µM
[6]
  Ki: 9.55 µM
[7]
  Ki: 1.11 µM
[8]
  Function Type: Agonist
[8]; 5-HT1A agonist, read-out: EC50
  EC50: 3.2 µM
[8]; agonist, read-out: Functional EC50
  EC50: 3.23 µM
[9]
  Function Type: Antagonist
[9]; 5-HT2B antagonist
  IC50: 1 µM
[9]; antagonist
  EC50: 1 µM
[10]
  Function Type: Antagonist
[10]; 5-HT2C antagonist
  IC50: 0.131 µM
[10]; antagonist
  EC50: 0.131 µM
[11]
  EC50: 0.7 µM
  Function Type: Partial agonist
[11]; read-out: maximal effect
  Emax: 17.3%
[12]
  Function Type: agonist
[12]; agonist
  EC50: 2 µM
[13]; <= 10 μM, aqueous buffer
  light scattering above background: did not scatter light above background
[13]; concentrations up to 10 μM
  colloidal aggregate formation: does not form aggregates
[14]
  amphetamine induced hyperlocomotion: significantly higher motor activity
[15]
  effect on dopamine uptake in HEK-DAT/VMAT2 cells: no effect
[16]
  inhibition of AmpC β-lactamase: did not inhibit
